Assay [1] has as its target T1, human CXCR4 (Homo sapiens, UniProt P61073). The experiment in a line: IC50 for inhibition of CXCR4 activation, β-Arrestin recruitment (Example 22). The format is cell-based. Details: host or cells: C2C12 (mouse myoblast) CXCR4 β-Arrestin PathHunter cell line. On the procedure: The assay was run with the DiscoverX protocol. β-Arrestin recruitment assays were performed by Eurofins-DiscoverX (Fremont, Calif.) using C2C12 CXCR4 β-Arrestin cell line (co-expressing ProLink tagged human CXCR4 and Enzyme Acceptor tagged β-Arrestin) and PathHunter detection kit. Peptides were initially prepared as 1 mM stock in H2O and tested in ten (10)-step concentration response curves using 3-fold dilution steps with 1 μM as highest concentration; a concentration range of 1 μM-0.05 nM was tested. C2C12 CXCR4 β-Arrestin cells were seed onto 384-well plates in standard medium. […] At the end of the 90 min incubation period, β-Arrestin recruitment in response to various treatments was quantified using a chemiluminescent complementation reporter assay to measure association of tagged human […] (ProLink tag) and tagged β-Arrestin (Enzyme Acceptor tag).

Assay [2] addresses T1, human CXCR4. The experiment in a line: CXCR4/CXCL12 binding, HTRF format, single concentration (Example 23). More on the design: host or cells: HEK293 (Tag-lite CXCR4 cells, frozen aliquots, transient expression). The conditions noted are these: 15 nM CXCR4R fluorescent probe, 3 hours, HEK293 Tag-lite CXCR4 cells. As for the experimental part: Peptides were initially prepared as 1 mM stock in H2O and tested at a final concentration of 400 nM. Following the manufacture's protocol, a frozen aliquot of Tag-lite CXCR4 cells was thawed and immediately seeded onto 384-well plates in TLB. Immediately following the addition of cells, 400 nM peptide (final concentration) in TLB was added to the appropriate well. Then 15 nM (final concentration; EC80) of CXCR4R fluorescent probe was added to each well to initiate the HTRF assay. The plates were covered in aluminum foil and left at room temperature for 3 hours. Following the 3 hour incubation period, the plates were removed from the incubator and fluorescence measured using a Cytation 1 plate reader using a HTRF filter cube ([…]; BioTek; Winooski, Vt.). According manufacture's instruction data reduction was performed by calculating the ratio of 665 nm signal (TRF of 665 nm excitation by 620 emission; amount of CXCR4R fluorescent probe bound to terbium labeled CXCR receptor)/620 nm signal (620 excitation by 330 nm light source; normalization factor for amount of terbium labeled CXCR4 receptor in well)×10,000.

Assay [3] concerns CXCR4/CXCL12 induced p-MEK. Nature of the assay: CXCR4/CXCL12 induced p-MEK in Jurkat cells (ELISA). The format is cell-based, human. The following applies: 5 nM CXCL12, 5 min. On the procedure:
The assay was performed following a protocol similar to that described by Peng, et al., Mol Cancer Ther., 14 480-90 (2015), incorporated herein by reference. […] Jurkat cells were resuspended in standard growth media (RPMI+GlutaMax media; Gibco/Thermo Fisher Scientific; Gaithersburg, Md.) containing 10% FBS and 1% penicillin/streptomycin. Assays were performed using fresh or conditioned media (media cultured overnight in presence of Jurkat cells) to resuspend cells at density of 2×10^6 cells/ml and […] of cell suspension was immediately placed in 1.7 ml microfuge tubes. […] Following the 5 min incubation, cells were centrifuged at 1000×g for 4 min at 4° C. The supernatant was removed and the cells were rinsed with 1 ml of HBSS containing calcium and magnesium. The HBSS was removed and the cells were immediately lysed in 150 l of lysis buffer included with Phospho-MEK1 (Ser217/221) Sandwich ELISA kit (Cell Signaling Technology; Danvers, Mass.); lysis buffer was supplemented with 1 m M PMSF (Millipore-Sigma; Saint Louis, Mo.) and Halt protease/phosphatase inhibitor cocktail (Thermo-Fisher; Waltham, Mass.) prior to use. The samples were then placed on ice for 10 min and vortexed periodically. Following the lysis step, the samples were centrifuged at 12,500 rpm for 10 min at 4° C. p-MEK expression in each of the samples was then measure using Phospho-MEK1 (Ser217/221) Sandwich ELISA kit according to manufacturer's instructions. Absorbance was measured using a Cytation 3 plate reader at […] (BioTek; Winooski, Vt.).

Square brackets hold non-standard residues; d marks the D form. Peptide text beside a SMILES is read from it.

T1 sequence (P61073 whole entry): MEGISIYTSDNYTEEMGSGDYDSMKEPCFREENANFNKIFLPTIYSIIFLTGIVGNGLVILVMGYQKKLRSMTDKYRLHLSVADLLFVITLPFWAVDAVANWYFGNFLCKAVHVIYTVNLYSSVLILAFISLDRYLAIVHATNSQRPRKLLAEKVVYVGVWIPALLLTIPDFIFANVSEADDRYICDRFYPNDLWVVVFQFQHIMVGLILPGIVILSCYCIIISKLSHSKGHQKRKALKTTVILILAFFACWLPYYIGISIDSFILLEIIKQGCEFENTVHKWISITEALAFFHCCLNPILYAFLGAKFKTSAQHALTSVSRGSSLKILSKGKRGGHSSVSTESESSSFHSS

As usually defined, the IC50 is the concentration that gives 50% inhibition. A high value points to weaker potency in that assay. `CC(C)C[C@H](NC(=O)[C@H](CO)NC(=O)[C@H](CO)NC(=O)[C@H](CCCNC(=N)N)NC(=O)[C@@H](NC(=O)[C@H](CO)NC(=O)[C@H](Cc1c[nH]cn1)NC(=O)[C@H](CCC(N)=O)NC(=O)[C@H](Cc1ccc(O)cc1)NC(=O)[C@H](CCCNC(=N)N)NC(=O)[C@H](CCCNC(=N)N)NC(=O)[C@@H](N)CC(C)C)C(C)C)C(=O)N[C@@H](CCCNC(=N)N)C(=O)N1CCC[C@H]1C(=O)N[C@@H](Cc1ccc(O)cc1)C(=O)N[C@H](C(=O)N[C@@H](CCCCN)C(=O)O)[C@@H](C)O` [compound 47] (H-LRRYQHSVRSSLRPYTK-OH; N-terminus and C-terminus assumed) registered an IC50 in assay [1] of 11 nM. In addition, the “Percent Inhibition of CXCR4/CXCL12 Binding (400 nM peptide)” value in assay [2] is 5%.
In the case of `CC(C)C[C@H](NC(=O)[C@H](CO)NC(=O)[C@H](CO)NC(=O)[C@H](CC(=O)O)NC(=O)[C@@H](NC(=O)[C@H](CO)NC(=O)[C@H](Cc1c[nH]cn1)NC(=O)[C@H](Cc1c[nH]cn1)NC(=O)[C@H](Cc1ccc(O)cc1)NC(=O)[C@H](CCCNC(=N)N)NC(=O)[C@H](CCCNC(=N)N)NC(=O)[C@@H](N)CC(C)C)C(C)C)C(=O)N[C@@H](CCCNC(=N)N)C(=O)N1CCC[C@H]1C(=O)N[C@@H](Cc1ccc(O)cc1)C(=O)N[C@H](C(=O)N[C@@H](CCCCN)C(=O)O)[C@@H](C)O` [compound 66] (H-LRRYHHSVDSSLRPYTK-OH; N-terminus and C-terminus assumed), in assay [3], the “Percent Inhibition of CXCR4/CXCL12 Induced p-MEK (100 nM Test Article)” value is recorded as −7% and the “Percent Inhibition of CXCR4/CXCL12 Induced p-MEK (1 μM Test Article)” value was determined as 13%. The “Percent Inhibition of CXCR4/CXCL12 Binding (400 nM peptide)” value in assay [2] is given as −5%.
For the molecule `CC(C)C[C@H](NC(=O)[C@H](CO)NC(=O)[C@H](CO)NC(=O)[C@H](CCCNC(=N)N)NC(=O)[C@@H](C)NC(=O)[C@H](CO)NC(=O)[C@H](Cc1c[nH]cn1)NC(=O)[C@H](Cc1c[nH]cn1)NC(=O)[C@H](Cc1ccc(O)cc1)NC(=O)[C@H](CCCNC(=N)N)NC(=O)[C@H](CCC(=O)O)NC(=O)[C@@H](N)CC(C)C)C(=O)N[C@@H](CCCNC(=N)N)C(=O)N1CCC[C@H]1C(=O)N[C@@H](Cc1ccc(O)cc1)C(=O)N[C@@H](CO)C(=O)N[C@@H](CCCCN)C(=O)O` [compound 78] (H-LERYHHS[dA]RSSLRPYSK-OH; N-terminus and C-terminus assumed), in assay [3], the “Percent Inhibition of CXCR4/CXCL12 Induced p-MEK (100 nM Test Article)” value was determined as 29% and the “Percent Inhibition of CXCR4/CXCL12 Induced p-MEK (1 μM Test Article)” value came to 46%. For the same molecule, the “Percent Inhibition of CXCR4/CXCL12 Binding (400 nM peptide)” value in assay [2] was 72%.
Turning to `CC(C)C[C@H](NC(=O)[C@H](CO)NC(=O)[C@H](CO)NC(=O)[C@H](CCC(=O)O)NC(=O)[C@@H](NC(=O)[C@H](CO)NC(=O)[C@H](Cc1c[nH]cn1)NC(=O)[C@H](Cc1c[nH]cn1)NC(=O)[C@H](Cc1ccc(O)cc1)NC(=O)[C@H](CCCNC(=N)N)NC(=O)[C@H](CCCNC(=N)N)NC(=O)[C@@H](N)CC(C)C)C(C)C)C(=O)N[C@@H](CCCNC(=N)N)C(=O)N1CCC[C@H]1C(=O)N[C@@H](Cc1ccc(O)cc1)C(=O)N[C@H](C(=O)N[C@@H](CCCCN)C(=O)O)[C@@H](C)O` [compound 62] (H-LRRYHHSVESSLRPYTK-OH; N-terminus and C-terminus assumed), in assay [2], the “Percent Inhibition of CXCR4/CXCL12 Binding (400 nM peptide)” value was found to be 4%.
The same measure, in the same setting: the value for `CC(C)C[C@H](NC(=O)[C@H](CO)NC(=O)[C@H](CO)NC(=O)[C@H](CCCNC(=N)N)NC(=O)[C@@H](NC(=O)[C@H](CO)NC(=O)[C@H](Cc1c[nH]cn1)NC(=O)[C@H](Cc1c[nH]cn1)NC(=O)[C@H](Cc1ccc(O)cc1)NC(=O)[C@H](CCCNC(=N)N)NC(=O)[C@H](CCC(=O)O)NC(=O)[C@@H](N)CC(C)C)C(C)C)C(=O)N[C@@H](CCCNC(=N)N)C(=O)N1CCC[C@H]1C(=O)O` [compound 20] (H-LERYHHSVRSSLRP-OH; N-terminus and C-terminus assumed) was 37%; that for `CC(C)C[C@H](NC(=O)[C@H](CO)NC(=O)[C@H](CO)NC(=O)[C@H](CCCNC(=N)N)NC(=O)[C@@H](NC(=O)[C@H](CO)NC(=O)[C@H](CC(N)=O)NC(=O)[C@H](Cc1c[nH]cn1)NC(=O)[C@H](Cc1ccc(O)cc1)NC(=O)[C@H](CCCNC(=N)N)NC(=O)[C@H](CCCNC(=N)N)NC(=O)[C@@H](N)CC(C)C)C(C)C)C(=O)N[C@@H](CCCNC(=N)N)C(=O)N1CCC[C@H]1C(=O)N[C@@H](Cc1ccc(O)cc1)C(=O)N[C@H](C(=O)N[C@@H](CCCCN)C(=O)O)[C@@H](C)O` [compound 44] (H-LRRYHNSVRSSLRPYTK-OH; N-terminus and C-terminus assumed) was 0%; that for `CC(C)C[C@H](N)C(=O)N[C@@H](CCC(=O)O)C(=O)N[C@@H](CCCNC(=N)N)C(=O)N[C@@H](Cc1ccc(O)cc1)C(=O)N[C@@H](Cc1c[nH]cn1)C(=O)N[C@@H](Cc1c[nH]cn1)C(=O)N[C@@H](CO)C(=O)N[C@H](C(=O)N[C@@H](CCCNC(=N)N)C(=O)N[C@@H](CO)C(=O)N[C@@H](CO)C(=O)O)C(C)C` [compound 23] (H-LERYHHSVRSS-OH; N-terminus and C-terminus assumed) was 23%.
Consider `CC(C)C[C@H](NC(=O)[C@H](CO)NC(=O)[C@H](CO)NC(=O)[C@H](CCCNC(=N)N)NC(=O)[C@@H](NC(=O)[C@H](CO)NC(=O)[C@H](Cc1c[nH]cn1)NC(=O)[C@H](Cc1c[nH]cn1)NC(=O)[C@H](Cc1ccc(O)cc1)NC(=O)[C@H](CCCNC(=N)N)NC(=O)[C@H](CCCNC(=N)N)NC(=O)[C@@H](N)CC(C)C)C(C)C)C(=O)N[C@@H](CCCNC(=N)N)C(=O)N1CCC[C@H]1C(=O)N[C@@H](Cc1ccc(O)cc1)C(=O)O` [compound 25] (H-LRRYHHSVRSSLRPY-OH; N-terminus and C-terminus assumed), for which the “Percent Inhibition of CXCR4/CXCL12 Binding (400 nM peptide)” value in assay [2] is 0%.
Take `CC(C)C[C@H](NC(=O)[C@H](CO)NC(=O)[C@H](CO)NC(=O)[C@H](CCCNC(=N)N)NC(=O)[C@@H](C)NC(=O)[C@H](CO)NC(=O)[C@H](Cc1c[nH]cn1)NC(=O)[C@H](Cc1c[nH]cn1)NC(=O)[C@H](Cc1ccc(O)cc1)NC(=O)[C@H](CCCNC(=N)N)NC(=O)[C@H](CCCNC(=N)N)NC(=O)[C@@H](N)CC(C)C)C(=O)N[C@@H](CC(=O)O)C(=O)N1CCC[C@H]1C(=O)N[C@@H](Cc1ccc(O)cc1)C(=O)N[C@H](C(=O)N[C@@H](CCCCN)C(=O)O)[C@@H](C)O` [compound 69] (H-LRRYHHS[dA]RSSLDPYTK-OH; N-terminus and C-terminus assumed): the “Percent Inhibition of CXCR4/CXCL12 Binding (400 nM peptide)” value in assay [2] is given as −5%.
As for `CC(C)C[C@H](NC(=O)[C@H](CO)NC(=O)[C@H](CO)NC(=O)[C@H](CCCNC(=N)N)NC(=O)[C@@H](C)NC(=O)[C@H](CO)NC(=O)[C@H](Cc1c[nH]cn1)NC(=O)[C@H](Cc1c[nH]cn1)NC(=O)[C@H](Cc1ccc(O)cc1)NC(=O)[C@H](CCCNC(=N)N)NC(=O)[C@H](CCC(=O)O)NC(=O)[C@@H](C)N)C(=O)N[C@@H](CCCNC(=N)N)C(=O)N1CCC[C@H]1C(=O)N[C@@H](Cc1ccc(O)cc1)C(=O)N[C@H](C(=O)N[C@@H](CCCCN)C(=O)O)[C@@H](C)O` [compound 35] (H-[dA]ERYHHS[dA]RSSLRPYTK-OH; N-terminus and C-terminus assumed), in assay [3], the “Percent Inhibition of CXCR4/CXCL12 Induced p-MEK (100 nM Test Article)” value was −7% and the “Percent Inhibition of CXCR4/CXCL12 Induced p-MEK (1 μM Test Article)” value is −6%. Besides, in assay [2], the “Percent Inhibition of CXCR4/CXCL12 Binding (400 nM peptide)” value is given as −13%.

The values are drawn from patent US20220395553A1, “CXCR4 ANTAGONIST PEPTIDES” (COHBAR, INC., priority 2019, published 2022).
